We go through 1 molecule from paper PMC12769565, “Design, synthesis and biological activity of glycoconjugated ADAMTS5 exosite inhibitors: applications in osteoarthritis and ovarian cancer models” (Scientific Reports, 2025).

The structures appear in SMILES notation.

Common to all, as to type: biochemical
For assay [1], the target named is T1, ADAMTS4 (Homo sapiens, UniProt O75173).
T1 construct: Human recombinant full-length FLAG-tagged ADAMTS4 and ADAMTS5 were expressed in HEK293T cells; FLAG; made in house; host or cells: HEK293T cells
T1 sequence (O75173 213-837): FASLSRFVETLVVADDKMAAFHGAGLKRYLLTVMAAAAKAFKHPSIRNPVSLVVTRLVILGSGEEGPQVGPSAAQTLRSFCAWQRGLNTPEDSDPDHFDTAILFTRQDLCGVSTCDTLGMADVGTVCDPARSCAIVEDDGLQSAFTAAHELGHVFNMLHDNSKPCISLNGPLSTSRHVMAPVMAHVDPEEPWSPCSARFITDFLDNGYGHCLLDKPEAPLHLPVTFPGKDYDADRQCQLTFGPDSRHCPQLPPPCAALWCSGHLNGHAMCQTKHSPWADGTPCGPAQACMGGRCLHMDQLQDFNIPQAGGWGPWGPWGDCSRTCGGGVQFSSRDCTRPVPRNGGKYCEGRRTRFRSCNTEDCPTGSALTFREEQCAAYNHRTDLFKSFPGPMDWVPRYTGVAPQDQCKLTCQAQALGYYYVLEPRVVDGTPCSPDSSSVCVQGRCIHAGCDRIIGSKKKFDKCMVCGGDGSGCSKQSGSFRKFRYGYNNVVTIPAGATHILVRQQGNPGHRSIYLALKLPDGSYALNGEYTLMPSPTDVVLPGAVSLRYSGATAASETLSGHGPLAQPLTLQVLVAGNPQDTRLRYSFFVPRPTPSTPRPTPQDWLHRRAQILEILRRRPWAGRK
In words: Versicanase assay (V1-5GAG, versikine sandwich ELISA). The note with it: compared to DMSO control. As to the method: (§1) Human recombinant full-length FLAG-tagged ADAMTS4 and ADAMTS5 were expressed in HEK293T cells (Thermo Fisher Scientific) and purified by anti-FLAG immunoaffinity chromatography as before. Concentrations of active proteases were determined by active-site titrations with known concentrations of TIMP-3 (Bio-Techne, 973-TM-010), using QF peptides as substrates. V1-5GAG, a truncated version of versican V1 isoform comprising residues 21–694 and containing a C-terminal 6x His tag[67], was expressed in HE293T cells and purified by immobilized metal affinity chromatography as before.
Compounds 1–4 (100 µM) or DMSO were incubated with ADAMTS4 (5 nM) or ADAMTS5 (0.4 nM) for 2 h at 37 °C, before addition of V1-5GAG (50 nM). At each time point, reactions were stopped by addition of ethylenediaminetetraacetic acid and ADAMTS-generated versican fragments (versikine) quantified by sandwich ELISA as before[29],[30],[38] using anti-DPEAAE neoepitope antibody (Life Technologies, PA1-1748 A, 5 µg/ml) and polyclonal anti-versican antibody (Abcam, ab171887, 3 µg/ml). For each reaction, the amount of versikine generated was derived from a standard curve (0–1.56 nM) of V1-5GAG completely digested with ADAMTS5. Initial velocities were calculated from the concentration of versikine generated as a function of reaction time. Percent of inhibition was calculated from the DMSO control reactions. IC50 values were determined using the formula: vi/v0 = 1/(1 + [I]/IC50) where vi is the initial velocity of substrate cleavage in the presence of the inhibitor at concentration [I] and v0 is the initial velocity in the presence of an equal concentration (v/v) of DMSO.
A general note: ELISA stands for enzyme-linked immunosorbent assay.

Assay [2] concerns the target T2, ADAMTS5 (Homo sapiens, UniProt Q9UNA0).
T2 construct: Human recombinant full-length FLAG-tagged ADAMTS4 and ADAMTS5 were expressed in HEK293T cells; FLAG; made in house; host or cells: HEK293T cells
T2 sequence (Q9UNA0 262-930): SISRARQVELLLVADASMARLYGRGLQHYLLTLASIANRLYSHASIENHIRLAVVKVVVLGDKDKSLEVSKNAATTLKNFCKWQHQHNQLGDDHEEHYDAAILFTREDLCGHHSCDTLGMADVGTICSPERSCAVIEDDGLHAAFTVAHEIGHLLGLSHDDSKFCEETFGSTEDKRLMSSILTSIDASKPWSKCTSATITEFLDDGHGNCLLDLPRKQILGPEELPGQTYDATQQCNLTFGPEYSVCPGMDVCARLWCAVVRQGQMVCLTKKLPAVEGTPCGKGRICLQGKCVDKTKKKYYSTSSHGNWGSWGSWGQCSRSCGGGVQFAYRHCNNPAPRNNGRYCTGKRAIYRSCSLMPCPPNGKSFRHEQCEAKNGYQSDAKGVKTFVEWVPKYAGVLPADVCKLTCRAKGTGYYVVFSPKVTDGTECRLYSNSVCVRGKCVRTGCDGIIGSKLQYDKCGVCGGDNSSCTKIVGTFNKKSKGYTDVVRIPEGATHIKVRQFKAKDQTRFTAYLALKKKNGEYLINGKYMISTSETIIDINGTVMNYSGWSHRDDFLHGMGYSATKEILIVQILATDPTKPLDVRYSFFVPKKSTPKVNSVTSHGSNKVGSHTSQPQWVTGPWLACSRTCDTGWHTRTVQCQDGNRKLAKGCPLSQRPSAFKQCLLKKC
Briefly: Aggrecanase assay (bovine aggrecan, anti-ARGSV neoepitope immunoblot). The conditions noted are these: 100 µM. As to the method:
Aggrecanase assays were carried out as before. ADAMTS5 (1 nM) was incubated with compounds 2 and 3 or DMSO for 2 h at 37 °C in TNC-B buffer before addition of bovine articular aggrecan (UniProt ID: P13608, 270 nM) (Merck, A1960). After 2 h digestion at 37 °C, the reactions were stopped with ethylenediaminetetraacetic acid and the samples incubated with 0.1 U/ml of chondroitinase ABC (AMS Biotechnology, Abingdon, UK) and keratanase (endo-beta galactosidase, Merck, G6920) in deglycosylation buffer (50 mM sodium acetate, 25 mM Tris HCl pH 8.0) for 16 h at 37 °C to remove GAG chains.
Samples were separated by SDS-PAGE under reducing conditions (5% β-mercaptoethanol) on BOLT, 4–12%, Bis-Tris Gels (Invitrogen) in MES Running Buffer (NuPAGE). Proteins were transferred onto a nitrocellulose membrane using Trans-Blot Turbo™ Transfer System (BioRad), at 25 V, 2.5 A for 30 min. Membranes were blocked with 3% BSA/PBS for 1 h at room temperature. Aggrecan fragments generated by ADAMTS cleavage at E^392-A^393[8] or E^1953-A^1954[68] were detected using mouse monoclonal anti-ARGSV antibody (BC3, Life Technologies, MA3-16888, 4 µg/ml) or polyclonal anti-AGEG neoepitope antibody (serum, 1:200 dilution)[12],[33], respectively, followed by the appropriate horseradish peroxidase (HRP)-conjugated secondary antibodies (polyclonal Goat Anti-Mouse P0447, 0.1 ng/µl and polyclonal Goat Anti-Rabbit, P0448, 0.03 ng/µl, both from Agilent Technologies LDA UK Ltd). All antibodies were diluted in 0.5% bovine serum albumin (BSA)/PBS. Washes between each step were carried out in triplicate, for 15 min each, with PBS-Tween (0.1%). Following addition of the chemiluminescent HRP substrate (Millipore, WBKL30500) membranes were imaged using Bio-Rad Chemidoc Touch Imaging System. Analysis was carried out using BioRad ImageLab software (version 5.2.1) using sequential exposures to avoid saturation artifacts. Figures for unprocessed blots are included in Supplementary information Fig. S4 and Fig. S5 with highlighted regions (in red boxes) corresponding to the data reported in the main manuscript figures.
For orientation: A western blot detects proteins with antibodies after separation by electrophoresis.

Assay [3] deals with T2, ADAMTS5. In words: QF peptide cleavage assay (peptidolytic activity). The note with it: 100 µM; compared to DMSO control. As to the method:
as §1
(§2) QF peptide cleavage assays were conducted in TNC-B (50 mM Tris–HCl, pH 7.5, 150 mM NaCl, 10 mM CaCl2, and 0.02% NaN3) on a SpectraMax i3x Multi-Mode Platform (Molecular Devices, UK) in a total volume of 20 µl at 37℃ as before. ADAMTS4 (3.5 nM) or ADAMTS5 (4 nM) were incubated with compounds 1–4 (100 µM, diluted in TNC-B from 10 mM DMSO stocks) or DMSO for 1 h at 37 ℃ before addition of QF peptides fluorescein-5(6)-carbonyl-[…]N, N,N0,N0-tetramethyl-6-carboxyrhodamine, and fluorescein-5(6)-carbonyl-Thr-Glu-Ser-Glu - […]N, N,N0,N0-tetramethyl-6-carboxyrhodamine, respectively, each at 40 µM. Fluorescence intensity was recorded with an excitation wavelength of 485 nm and an emission wavelength of 535 nm every min for 2 h, expressed as relative fluorescence units and normalized against a blank containing only buffer and substrate. Fluorescence values were converted into residual activity by fixing as 100% the activity of the reactions containing an equal concentration (v/v) of DMSO instead of compound (DMSO control).

Assay [4] has as its target T1, ADAMTS4. Briefly: QF peptide cleavage assay (peptidolytic activity). The conditions noted are these: compared to DMSO control. As to the method: as §1, §2

Broadly, the inhibition is the drop in the measured response relative to a control, in per cent. A low value points to a weak effect. `CCC(C)N(Cc1cn(CCCO[C@@H]2O[C@H](CO[C@@H]3O[C@H](CO)[C@H](O)[C@H](O)[C@H]3O)[C@@H](O)[C@H](O)[C@H]2NC(C)=O)nn1)S(=O)(=O)c1ccc(-c2ccccc2)cc1` (stereo partly drawn) [compound 3, N-((2R,3R,4R,5 S,6R)-2-(3-(4-((N-(sec-butyl)-[1,1’-biphenyl]-4-sulfonamido)methyl)-1 H-1,2,3-triazol-1-yl)propoxy)-4,5-dihydroxy-6-((((2R,3R,4 S,5R,6R)-3,4,5-trihydroxy-6-(hydroxymethyl)tetrahydro-2 H-pyran-2-yl)oxy)methyl)tetrahydro-2 H-pyran-3-yl)acetamide]: the inhibition at 100 µM against ADAMTS4 [1] came out at 42%; against ADAMTS4 [4] it was 48%. For the same molecule, the “inhibition of ADAMTS5 aggrecanase activity” value against ADAMTS5 [2] is given as “ineffective”. Besides, the “inhibition of ADAMTS5 peptidolytic activity” value on ADAMTS5 [3] is listed as “significant inhibition”.
